Converted amounts (≈) assume the structure as drawn. Like-named read-outs stand apart in the source and are kept apart here.
What was measured:
[1] = Solubility in biorelevant buffers; format: physicochemical
Procedure: The ionization constant (pKa), octanol-pH 7.4 buffer partition coefficient (Log D7.4), solubility in biorelevant buffers (FaSSIF-V2, FeSSIF-V2, FaSSGF and pH 7.4 phosphate buffered saline (PBS)) and Caco-2 permeability were determined according to previously published methods ([10]).

β2 = target: T1, β2 (Homo sapiens, UniProt P07550); assay: In vitro pharmacology panel (Eurofins); format: binding; settings: read-out: activity (% of DMSO control)
T1 construct: purchased Eurofins (Cerep/DiscoverX SafetyScreen44 in vitro pharmacology panel)
T1 sequence (P07550 whole entry): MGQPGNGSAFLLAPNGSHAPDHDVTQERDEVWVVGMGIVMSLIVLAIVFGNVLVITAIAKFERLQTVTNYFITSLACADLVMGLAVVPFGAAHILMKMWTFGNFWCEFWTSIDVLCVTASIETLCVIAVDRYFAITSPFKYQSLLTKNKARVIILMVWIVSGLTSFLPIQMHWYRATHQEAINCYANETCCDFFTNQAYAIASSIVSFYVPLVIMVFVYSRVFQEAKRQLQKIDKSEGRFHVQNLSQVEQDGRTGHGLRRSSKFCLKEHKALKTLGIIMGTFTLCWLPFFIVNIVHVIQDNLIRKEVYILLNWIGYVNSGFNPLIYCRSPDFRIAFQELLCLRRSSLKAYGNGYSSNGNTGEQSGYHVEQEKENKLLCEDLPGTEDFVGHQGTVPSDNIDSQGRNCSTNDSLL
Excerpt: (§1) Listed values represent the percent change relative to the DMSO control activity. When an IC50 had to be determined, eight different concentrations were included. All values are the mean of assay readout duplicates.

M2 = target: T2, M2 (Homo sapiens, UniProt P08172); assay: In vitro pharmacology panel (Eurofins); format: binding; settings: read-out: activity (% of DMSO control)
T2 construct: purchased Eurofins (Cerep/DiscoverX SafetyScreen44 in vitro pharmacology panel)
T2 sequence (P08172 whole entry): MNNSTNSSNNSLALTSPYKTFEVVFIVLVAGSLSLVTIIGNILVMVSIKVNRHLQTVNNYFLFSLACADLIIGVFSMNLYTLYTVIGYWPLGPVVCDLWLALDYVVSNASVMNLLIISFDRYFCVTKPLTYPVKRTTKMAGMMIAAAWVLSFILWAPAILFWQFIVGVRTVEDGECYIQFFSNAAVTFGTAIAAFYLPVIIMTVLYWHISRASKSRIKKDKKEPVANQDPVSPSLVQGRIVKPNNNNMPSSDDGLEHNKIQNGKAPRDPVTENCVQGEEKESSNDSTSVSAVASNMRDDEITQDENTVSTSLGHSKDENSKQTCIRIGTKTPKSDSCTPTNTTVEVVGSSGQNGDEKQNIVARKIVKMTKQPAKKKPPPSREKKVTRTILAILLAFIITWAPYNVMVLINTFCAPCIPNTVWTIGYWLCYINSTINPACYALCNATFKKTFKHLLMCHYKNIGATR
Excerpt: as §1

D2S = target: T3, D2S (Homo sapiens, UniProt P14416); assay: In vitro pharmacology panel (Eurofins); format: binding; settings: read-out: activity (% of DMSO control)
T3 construct: purchased Eurofins (Cerep/DiscoverX SafetyScreen44 in vitro pharmacology panel)
Excerpt: as §1

5-HT3 = target: T4, 5-HT3 (Homo sapiens, UniProt P46098); assay: In vitro pharmacology panel (Eurofins); format: binding; settings: read-out: activity (% of DMSO control)
T4 construct: purchased Eurofins (Cerep/DiscoverX SafetyScreen44 in vitro pharmacology panel)
T4 sequence (P46098 24-478): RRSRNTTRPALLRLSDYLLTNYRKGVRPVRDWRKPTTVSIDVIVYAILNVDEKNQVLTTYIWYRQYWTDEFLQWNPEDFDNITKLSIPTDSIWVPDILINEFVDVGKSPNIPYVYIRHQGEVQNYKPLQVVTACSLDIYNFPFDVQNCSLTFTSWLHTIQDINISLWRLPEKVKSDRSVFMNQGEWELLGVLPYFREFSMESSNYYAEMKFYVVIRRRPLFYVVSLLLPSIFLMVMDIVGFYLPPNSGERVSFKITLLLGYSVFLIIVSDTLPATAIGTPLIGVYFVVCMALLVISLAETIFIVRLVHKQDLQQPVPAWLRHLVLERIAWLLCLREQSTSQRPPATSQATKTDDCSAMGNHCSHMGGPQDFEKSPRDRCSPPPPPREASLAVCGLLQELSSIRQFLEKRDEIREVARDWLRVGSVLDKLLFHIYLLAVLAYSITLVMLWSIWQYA
Excerpt: as §1

5-HT1A = target: T5, 5-HT1A (Homo sapiens, UniProt P08908); assay: In vitro pharmacology panel (Eurofins); format: binding; settings: read-out: activity (% of DMSO control)
T5 construct: purchased Eurofins (Cerep/DiscoverX SafetyScreen44 in vitro pharmacology panel)
T5 sequence (P08908 whole entry): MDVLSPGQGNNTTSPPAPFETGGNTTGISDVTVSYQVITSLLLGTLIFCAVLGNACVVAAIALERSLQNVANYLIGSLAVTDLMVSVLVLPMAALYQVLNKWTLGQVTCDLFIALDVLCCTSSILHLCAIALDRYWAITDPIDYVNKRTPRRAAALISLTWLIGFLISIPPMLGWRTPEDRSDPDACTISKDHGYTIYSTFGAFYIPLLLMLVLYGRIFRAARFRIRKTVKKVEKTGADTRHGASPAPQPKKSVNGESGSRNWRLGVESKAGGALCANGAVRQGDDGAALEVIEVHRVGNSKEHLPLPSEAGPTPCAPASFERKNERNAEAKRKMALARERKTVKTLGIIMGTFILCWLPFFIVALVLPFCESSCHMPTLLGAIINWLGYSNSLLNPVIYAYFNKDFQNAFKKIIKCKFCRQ
Excerpt: as §1

[2] = target: T6, norepinephrine transporter (Homo sapiens, UniProt P23975); assay: In vitro pharmacology panel (Eurofins); format: binding; settings: read-out: activity (% of DMSO control)
T6 construct: purchased Eurofins (Cerep/DiscoverX SafetyScreen44 in vitro pharmacology panel)
Excerpt: as §1

5-HT2B = target: T7, 5-HT2B (Homo sapiens, UniProt P41595); assay: In vitro pharmacology panel (Eurofins); format: binding; settings: read-out: activity (% of DMSO control)
T7 construct: purchased Eurofins (Cerep/DiscoverX SafetyScreen44 in vitro pharmacology panel)
T7 sequence (P41595 whole entry): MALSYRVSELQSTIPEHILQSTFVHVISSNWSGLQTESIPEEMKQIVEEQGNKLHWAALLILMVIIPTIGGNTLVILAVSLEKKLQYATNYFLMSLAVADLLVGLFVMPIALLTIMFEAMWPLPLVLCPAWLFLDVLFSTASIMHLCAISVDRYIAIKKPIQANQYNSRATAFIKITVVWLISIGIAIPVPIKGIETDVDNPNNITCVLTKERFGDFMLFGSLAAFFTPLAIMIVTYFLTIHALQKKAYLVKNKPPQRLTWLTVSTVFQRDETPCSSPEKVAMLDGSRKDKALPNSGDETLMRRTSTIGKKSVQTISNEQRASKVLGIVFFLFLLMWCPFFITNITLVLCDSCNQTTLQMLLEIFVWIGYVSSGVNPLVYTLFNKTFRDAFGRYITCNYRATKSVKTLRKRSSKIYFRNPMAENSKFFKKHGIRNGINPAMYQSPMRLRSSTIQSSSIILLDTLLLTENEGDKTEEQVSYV
Excerpt: as §1

acetylcholinesterase = target: T8, acetylcholinesterase (Homo sapiens, UniProt P22303); assay: In vitro pharmacology panel (Eurofins); format: biochemical; settings: read-out: activity (% of DMSO control)
T8 construct: Eurofins (contract assay)
Excerpt: as §1

Lck kinase = target: T9, Lck kinase (Homo sapiens, UniProt P06239); assay: In vitro pharmacology panel (Eurofins); format: biochemical; settings: read-out: activity (% of DMSO control)
T9 construct: purchased Eurofins (Cerep/DiscoverX SafetyScreen44 in vitro pharmacology panel)
T9 sequence (P06239 whole entry): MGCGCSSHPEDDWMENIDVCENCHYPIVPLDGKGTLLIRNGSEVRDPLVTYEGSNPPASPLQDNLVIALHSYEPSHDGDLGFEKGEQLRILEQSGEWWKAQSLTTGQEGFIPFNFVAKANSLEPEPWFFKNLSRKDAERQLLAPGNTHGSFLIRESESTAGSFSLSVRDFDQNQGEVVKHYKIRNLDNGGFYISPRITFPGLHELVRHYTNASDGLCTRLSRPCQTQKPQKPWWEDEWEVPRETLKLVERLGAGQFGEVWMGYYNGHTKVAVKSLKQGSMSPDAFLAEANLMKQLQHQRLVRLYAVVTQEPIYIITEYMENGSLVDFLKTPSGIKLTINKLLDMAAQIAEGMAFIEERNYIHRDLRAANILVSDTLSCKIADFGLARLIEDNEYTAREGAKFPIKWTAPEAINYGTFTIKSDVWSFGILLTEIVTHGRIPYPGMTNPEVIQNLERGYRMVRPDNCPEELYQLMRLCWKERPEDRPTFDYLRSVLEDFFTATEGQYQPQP
Excerpt: as §1

PDE4D2 = target: T10, PDE4D2 (Homo sapiens, UniProt Q08499); assay: In vitro pharmacology panel (Eurofins); format: biochemical
T10 construct: Eurofins (contract assay)
T10 sequence (Q08499 303-809 limits assumed): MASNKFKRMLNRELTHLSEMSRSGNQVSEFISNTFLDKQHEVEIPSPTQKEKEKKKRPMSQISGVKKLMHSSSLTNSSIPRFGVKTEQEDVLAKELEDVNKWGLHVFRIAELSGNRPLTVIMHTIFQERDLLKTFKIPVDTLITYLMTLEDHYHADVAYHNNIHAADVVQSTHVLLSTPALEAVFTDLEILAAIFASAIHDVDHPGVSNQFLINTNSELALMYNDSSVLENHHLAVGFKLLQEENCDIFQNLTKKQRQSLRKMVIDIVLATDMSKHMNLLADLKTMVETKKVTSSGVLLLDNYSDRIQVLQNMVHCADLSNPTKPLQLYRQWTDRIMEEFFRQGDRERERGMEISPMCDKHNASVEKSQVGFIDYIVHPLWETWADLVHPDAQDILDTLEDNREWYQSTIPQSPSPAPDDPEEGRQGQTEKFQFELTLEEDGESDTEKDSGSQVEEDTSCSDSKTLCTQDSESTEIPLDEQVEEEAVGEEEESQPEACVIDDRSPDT
Excerpt: as §1

COX2 = target: T11, COX2 (Homo sapiens, UniProt P35354); assay: In vitro pharmacology panel (Eurofins); format: biochemical; settings: read-out: activity (% of DMSO control)
T11 construct: purchased Eurofins (Cerep/DiscoverX SafetyScreen44 in vitro pharmacology panel)
Excerpt: as §1

PDE3A = target: T12, PDE3A (Homo sapiens, UniProt Q14432); assay: In vitro pharmacology panel (Eurofins); format: biochemical
T12 construct: Eurofins (contract assay)
T12 sequence (Q14432 whole entry): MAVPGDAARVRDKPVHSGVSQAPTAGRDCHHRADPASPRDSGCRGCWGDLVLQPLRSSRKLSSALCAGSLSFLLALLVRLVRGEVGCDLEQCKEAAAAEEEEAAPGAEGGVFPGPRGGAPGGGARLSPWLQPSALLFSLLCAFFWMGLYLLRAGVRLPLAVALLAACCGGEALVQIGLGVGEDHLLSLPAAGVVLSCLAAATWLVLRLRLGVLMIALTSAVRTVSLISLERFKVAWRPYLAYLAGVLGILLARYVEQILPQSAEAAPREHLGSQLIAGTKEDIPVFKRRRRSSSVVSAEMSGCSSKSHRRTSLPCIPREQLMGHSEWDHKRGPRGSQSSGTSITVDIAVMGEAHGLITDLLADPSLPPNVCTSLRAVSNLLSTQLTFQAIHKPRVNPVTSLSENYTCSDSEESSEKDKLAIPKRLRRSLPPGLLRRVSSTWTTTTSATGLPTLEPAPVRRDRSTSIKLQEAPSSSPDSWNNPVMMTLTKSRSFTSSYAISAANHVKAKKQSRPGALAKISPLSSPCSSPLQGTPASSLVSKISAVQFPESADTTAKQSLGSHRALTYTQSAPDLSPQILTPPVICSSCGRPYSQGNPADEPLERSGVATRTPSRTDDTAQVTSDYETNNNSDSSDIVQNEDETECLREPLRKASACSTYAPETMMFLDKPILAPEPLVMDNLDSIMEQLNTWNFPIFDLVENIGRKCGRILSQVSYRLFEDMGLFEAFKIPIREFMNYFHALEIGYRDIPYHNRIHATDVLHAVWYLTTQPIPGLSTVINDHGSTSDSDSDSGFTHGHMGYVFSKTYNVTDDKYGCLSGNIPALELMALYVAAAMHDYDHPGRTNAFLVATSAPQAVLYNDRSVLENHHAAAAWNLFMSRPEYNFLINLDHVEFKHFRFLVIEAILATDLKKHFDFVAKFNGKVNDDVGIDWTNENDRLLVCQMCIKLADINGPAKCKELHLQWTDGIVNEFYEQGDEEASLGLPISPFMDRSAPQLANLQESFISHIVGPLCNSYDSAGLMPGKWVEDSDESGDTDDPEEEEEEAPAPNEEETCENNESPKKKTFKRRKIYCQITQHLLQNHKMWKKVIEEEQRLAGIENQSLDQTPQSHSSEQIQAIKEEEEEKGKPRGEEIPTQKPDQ
Excerpt: as §1

COX1 = target: T13, COX1 (Homo sapiens, UniProt P23219); assay: In vitro pharmacology panel (Eurofins); format: biochemical; settings: read-out: activity (% of DMSO control)
T13 construct: purchased Eurofins (Cerep/DiscoverX SafetyScreen44 in vitro pharmacology panel)
T13 sequence (P23219 24-599): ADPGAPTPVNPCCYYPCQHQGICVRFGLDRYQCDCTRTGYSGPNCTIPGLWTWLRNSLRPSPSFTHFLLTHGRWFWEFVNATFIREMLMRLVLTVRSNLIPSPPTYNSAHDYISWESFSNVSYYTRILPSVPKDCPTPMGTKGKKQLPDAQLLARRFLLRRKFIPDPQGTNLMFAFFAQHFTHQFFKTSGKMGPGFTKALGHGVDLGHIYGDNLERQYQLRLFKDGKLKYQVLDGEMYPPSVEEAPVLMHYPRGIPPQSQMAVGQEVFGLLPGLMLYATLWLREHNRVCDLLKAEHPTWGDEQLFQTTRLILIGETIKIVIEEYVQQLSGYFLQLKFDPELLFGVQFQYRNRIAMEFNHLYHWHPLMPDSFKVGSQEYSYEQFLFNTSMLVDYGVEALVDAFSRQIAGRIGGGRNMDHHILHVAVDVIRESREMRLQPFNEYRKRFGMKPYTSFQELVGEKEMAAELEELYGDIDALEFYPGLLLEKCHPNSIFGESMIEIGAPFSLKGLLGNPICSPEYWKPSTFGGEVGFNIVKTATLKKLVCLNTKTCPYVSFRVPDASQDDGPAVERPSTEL
Excerpt: as §1

[3] = In vitro metabolism, liver microsomes; format: in vitro ADME, mouse
Procedure: Compounds were spiked into microsomal matrix prepared in 0.1 M pH 7.4 phosphate buffer containing magnesium chloride (final concentration of 3.3 mM), equilibrated for 5-10 min at 37°C. The reaction was initiated with the addition of freshly prepared solution of NADPH (final 1.3 mM). Control samples without co-factor were included for comparison. Aliquots of the reaction mixtures were taken periodically over 60 min and quenched with acetonitrile containing internal standards (metolazone and diazepam). Quenched samples were maintained on ice for approximately 20-30 min, centrifuged (for 5 min) and the supernatant was analyzed by LC-MS.
In vitro intrinsic clearance (CLint, μL/min/mg or μL/min/10^6 cells) values were calculated from the apparent first order degradation rate constant divided by the microsome concentration or the hepatocyte cell number (10^6 viable cells/mL). In vitro CLint values were then divided by the fraction unbound in the in vitro test system (to give CLint,u) and scaled to in vivo values (mL/min/kg) using published physiological scaling factors ([28]). Blood clearance in each species was then calculated using the well-stirred model of hepatic extraction (equation 2) where Q is the hepatic blood flow and fu,blood is calculated from fu,plasma/B:P: [2] PredictedCLblood=Q x fu,blood x CLint,u/Q+fu,blood x CLint,u
Blood clearance values were converted to plasma clearance by multiplying by the B:P.

[4] = target: T14, human cytochrome bc1 complex (Homo sapiens, UniProt P00156); assay: Human complex III inhibition assay; format: biochemical
T14 construct: Preparation of mitochondria from a human cell line (THP-1); endogenous in cells; host or cells: THP-1 (human) mitochondria
Procedure: Preparation of mitochondria from a human cell line (THP-1) was performed following published procedure ([21]). The protocol for the assay has been described in ([22]).

L. infantum = assay: PK/PD analysis of liver burden versus cumulative unbound AUC; format: in vivo, hamsters; settings: Hamster – L. infantum; estimated using the fitted parameters
Excerpt: To determine the correlation between the pharmacokinetic (PK) and pharmacodynamic (PD) data, repeat dose profiles in mice and hamsters following single and twice daily dosing were simulated using the fitted parameters.
Other parameters were less well correlated to efficacy, presumably given that none reflect the cumulative exposure profile with an extended treatment regimen. […] Results for mice infected with L. donovani were similar to those for L. infantum (Table S15).

[5] = system: L. infantum MHOM/MA67/ITMAP263; assay: Acute mouse infection model (VL); format: in vivo, BALB/c mice; settings: for decrease in the liver parasite burden compared to control animals: 5 consecutive days
Procedure: (§2) Female 8−10-week-old BALB/c mice were infected with 2 x 10^7 L. donovani MHOM/ET/67/L82 (synonym HU3) or L. infantum MHOM/MA67/ITMAP263 amastigotes on day 0 and dispatched in groups of five individuals. […] Five days following end of treatment, all mice were sacrificed, and parasite burden was determined from smears of liver sections. Efficacy was expressed as the mean percentage load reduction compared to untreated (vehicle-only) control animals. Reference drugs miltefosine and/or AmBisome were used as positive controls and comparators.

[6] = system: L. donovani MHOM/ET/67/L82 (synonym HU3); assay: Acute mouse infection model (VL); format: in vivo, BALB/c mice; settings: 12.5 mg/kg bid or higher, 5-day dosing
Procedure: as §2

[7] = Binding to liver microsomes; format: in vitro ADME; settings: pH 7.4; human liver microsomes 1 mg/mL; read-out: Microsome fraction unbound
Procedure: Dialysis was conducted for 6 h and parallel non-dialyzed samples were included to confirm the absence of compound degradation. Binding to hepatocytes (at a cell density of 1 x 10^6 cells/mL) was calculated from the measured microsomal binding (at 1 mg/mL) as described previously ([26]). The fraction unbound (fu) was determined from the ratio of the dialysate to the donor concentration, assuming that the system was at steady state at the end of the dialysis period. For plasma, the data were corrected for the dilution factor to give a binding value for neat plasma according to previously published methods ([27]).

[8] = 10 µM, read-out: activity (% of DMSO control)

Cc1[nH]c2nc(N)nc(C)c2c1-c1ccc(C#N)c2c1OCO2 [DNDI-6174]
solubility ([1]; FaSSGF, pH 1.6, fassgf or other biorelevant, pH 1.6, read-out: Solubility FaSSGF): 1200 µg/mL (≈ 3900 µM) | solubility ([1]; FaSSIF-V2, pH 6.5, fassif, pH 6.5, read-out: Solubility FaSSIF): 11 µg/mL (≈ 35.8 µM) | solubility ([1]; FeSSIF-V2, pH 5.8, fessif, pH 5.8, read-out: Solubility FeSSIF): 54 µg/mL (≈ 176 µM) | Solubility FaSSGF ([1]; pH 1.6): 1.19 mg/mL (≈ 3870 µM) | solubility ([1]; phosphate buffered saline (PBS), pH 7.4, aqueous buffer, pH 7.4, read-out: Solubility PBS): 6.5 µg/mL (≈ 21.2 µM) | remaining activity at 10 µM (β2): 102% | remaining activity at 10 µM (M2): 92.9% | remaining activity at 10 µM (D2S): 77.6% | remaining activity at 10 µM (5-HT3): 105% | remaining activity at 10 µM (5-HT1A): 107% | remaining activity at 10 µM [2]: 81.9% | remaining activity at 10 µM (5-HT2B): 81.4% | remaining activity at 10 µM (acetylcholinesterase): 96.8% | remaining activity at 10 µM (Lck kinase): 100% | remaining activity at 10 µM (PDE4D2; [8]): 27.1% | IC50 (PDE4D2; human PDE4D2): 6.67 µM | remaining activity at 10 µM (COX2): 137% | remaining activity at 10 µM (PDE3A; [8]): 30.1% | IC50 (PDE3A; human PDE3A): 3.36 µM | remaining activity at 10 µM (COX1): 115% | Microsome predicted in vivo CLplasma ([3]; Mouse): 12 mL/min/kg | In vitro Microsome CLint ([3]; Mouse, 2 independent experiments): 13 ± 0.38 µL/min/mg | microsomal CLint at 0.5 µM ([3]; mouse, liver microsomes, pH 7.4, Mouse, 2 independent experiments, read-out: In vitro Microsome CLint): 17 ± 0.59 µL/min/mg | inhibition at 200 µM [4]: < 20% | unbound ED95 (L. infantum): 3.6 | reduction in liver parasite burden ([5]; 12.5 mg/kg bid or higher, 5-day dosing): > 95% | decrease in the liver parasite burden compared to control animals ([5]; 12.5 mg/kg bid): > 98% | decrease in the liver parasite burden compared to control animals ([5]; 25 mg/kg qd): > 98% | reduction in liver parasite burden [6]: > 95% | fraction unbound at 6 h, 0.5 µM [7]: 0.51

— paper PMC7615677 (Science translational medicine, 2023)
